# Measured values: PubChem BioAssay AID1963964 (Molecular Pharmacology Branch, DTP, NCI, 2024)
# System: 997726-040-R-J2-PDC tumor spheroids, viability
# Test: Anticancer human tumor 997726-040-R-J2-PDC patient-derived squamous cell lung carcinoma cell line growth inhibition [PI3K]
# Conditions: spheroids with HUVEC and MSC; for IC50: curve of first compound; for viability, T/C: stronger effect = lower value
# Method in brief: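 Spheroid viability read-out. Co-cultures contained the tumor line plus HUVEC and human MSCs. Each agent was paired with a PI3K inhibitor (inavolisib, alpelisib, duvelisib, copanlisib) across half-log dilutions starting at clinical Cmax, or at 10 microM when Cmax was unknown.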
# 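Note: spheroids exposed to compounds for seven days before readout.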
smiles,measurement,setting,value
Cn1cnc2c(F)c(Nc3ccc(Br)cc3Cl)c(C(=O)NOCCO)cc21 + CC(Nc1ncnc2nc[nH]c12)c1cc2cccc(Cl)c2c(=O)n1-c1ccccc1,IC50,second compound 0.0316 µM,553 nM
same,IC50,second compound 0.1 µM,467 nM
same,IC50,second compound 0.316 µM,319 nM
same,IC50,second compound 1 µM,574 nM
same,IC50,second compound 3.16 µM,60.1 nM
same,IC50,second compound 10 µM,< 9.49 nM
same,"viability, T/C","second compound 0.0316 µM, first compound 0.00949 µM",66.7%
same,"viability, T/C","second compound 0.0316 µM, first compound 0.03 µM",64.8%
same,"viability, T/C","second compound 0.0316 µM, first compound 0.0949 µM",55.7%
same,"viability, T/C","second compound 0.0316 µM, first compound 0.3 µM",54.2%
same,"viability, T/C","second compound 0.0316 µM, first compound 0.949 µM",45.7%
same,"viability, T/C","second compound 0.0316 µM, first compound 3 µM",44.4%
same,"viability, T/C","second compound 0.1 µM, first compound 0.00949 µM",84.3%
same,"viability, T/C","second compound 0.1 µM, first compound 0.03 µM",68.9%
same,"viability, T/C","second compound 0.1 µM, first compound 0.0949 µM",55.1%
same,"viability, T/C","second compound 0.1 µM, first compound 0.3 µM",54.9%
same,"viability, T/C","second compound 0.1 µM, first compound 0.949 µM",49.8%
same,"viability, T/C","second compound 0.1 µM, first compound 3 µM",41.5%
same,"viability, T/C","second compound 0.316 µM, first compound 0.00949 µM",71.5%
same,"viability, T/C","second compound 0.316 µM, first compound 0.03 µM",62.2%
same,"viability, T/C","second compound 0.316 µM, first compound 0.0949 µM",54.1%
same,"viability, T/C","second compound 0.316 µM, first compound 0.3 µM",51.1%
same,"viability, T/C","second compound 0.316 µM, first compound 0.949 µM",49.1%
same,"viability, T/C","second compound 0.316 µM, first compound 3 µM",40.5%
same,"viability, T/C","second compound 1 µM, first compound 0.00949 µM",72%
same,"viability, T/C","second compound 1 µM, first compound 0.03 µM",70.1%
same,"viability, T/C","second compound 1 µM, first compound 0.0949 µM",51.5%
same,"viability, T/C","second compound 1 µM, first compound 0.3 µM",55.8%
same,"viability, T/C","second compound 1 µM, first compound 0.949 µM",49.9%
same,"viability, T/C","second compound 1 µM, first compound 3 µM",42.4%
same,"viability, T/C","second compound 3.16 µM, first compound 0.00949 µM",56.8%
same,"viability, T/C","second compound 3.16 µM, first compound 0.03 µM",56%
same,"viability, T/C","second compound 3.16 µM, first compound 0.0949 µM",46.3%
same,"viability, T/C","second compound 3.16 µM, first compound 0.3 µM",42.4%
same,"viability, T/C","second compound 3.16 µM, first compound 0.949 µM",40.7%
same,"viability, T/C","second compound 3.16 µM, first compound 3 µM",35.2%
same,"viability, T/C","second compound 10 µM, first compound 0.00949 µM",46.1%
same,"viability, T/C","second compound 10 µM, first compound 0.03 µM",38.5%
same,"viability, T/C","second compound 10 µM, first compound 0.0949 µM",32.6%
same,"viability, T/C","second compound 10 µM, first compound 0.3 µM",30.7%
same,"viability, T/C","second compound 10 µM, first compound 0.949 µM",32.6%
same,"viability, T/C","second compound 10 µM, first compound 3 µM",24.7%
CC1(C)CCC(CN2CCN(c3ccc(C(=O)NS(=O)(=O)c4ccc(NCC5CCOCC5)c([N+](=O)[O-])c4)c(Oc4cnc5[nH]ccc5c4)c3)CC2)=C(c2ccc(Cl)cc2)C1 + CC(Nc1ccc2c(c1)OCCn1cc(N3C(=O)OCC3C(F)F)nc1-2)C(N)=O,IC50,second compound 0.00316 µM,9170 nM
same,IC50,second compound 0.01 µM,9250 nM
same,IC50,second compound 0.0316 µM,5870 nM
same,IC50,second compound 0.1 µM,< 31.6 nM
same,IC50,second compound 0.316 µM,< 31.6 nM
same,IC50,second compound 1 µM,< 31.6 nM
same,"viability, T/C","second compound 0.00316 µM, first compound 0.0316 µM",74.8%
same,"viability, T/C","second compound 0.00316 µM, first compound 0.1 µM",82.8%
same,"viability, T/C","second compound 0.00316 µM, first compound 0.316 µM",92.2%
same,"viability, T/C","second compound 0.00316 µM, first compound 1 µM",83.6%
same,"viability, T/C","second compound 0.00316 µM, first compound 3.16 µM",73.1%
same,"viability, T/C","second compound 0.00316 µM, first compound 10 µM",48.1%
same,"viability, T/C","second compound 0.01 µM, first compound 0.0316 µM",64.9%
same,"viability, T/C","second compound 0.01 µM, first compound 0.1 µM",86.6%
same,"viability, T/C","second compound 0.01 µM, first compound 0.316 µM",74.2%
same,"viability, T/C","second compound 0.01 µM, first compound 1 µM",81.6%
same,"viability, T/C","second compound 0.01 µM, first compound 3.16 µM",70%
same,"viability, T/C","second compound 0.01 µM, first compound 10 µM",48.1%
same,"viability, T/C","second compound 0.0316 µM, first compound 0.0316 µM",60.8%
same,"viability, T/C","second compound 0.0316 µM, first compound 0.1 µM",63.8%
same,"viability, T/C","second compound 0.0316 µM, first compound 0.316 µM",70.7%
same,"viability, T/C","second compound 0.0316 µM, first compound 1 µM",55%
same,"viability, T/C","second compound 0.0316 µM, first compound 3.16 µM",62.9%
same,"viability, T/C","second compound 0.0316 µM, first compound 10 µM",39.5%
same,"viability, T/C","second compound 0.1 µM, first compound 0.0316 µM",42.5%
same,"viability, T/C","second compound 0.1 µM, first compound 0.1 µM",42.1%
same,"viability, T/C","second compound 0.1 µM, first compound 0.316 µM",43.5%
same,"viability, T/C","second compound 0.1 µM, first compound 1 µM",37.2%
same,"viability, T/C","second compound 0.1 µM, first compound 3.16 µM",39.8%
same,"viability, T/C","second compound 0.1 µM, first compound 10 µM",28.3%
same,"viability, T/C","second compound 0.316 µM, first compound 0.0316 µM",30.7%
same,"viability, T/C","second compound 0.316 µM, first compound 0.1 µM",33.3%
same,"viability, T/C","second compound 0.316 µM, first compound 0.316 µM",32.9%
same,"viability, T/C","second compound 0.316 µM, first compound 1 µM",29.9%
same,"viability, T/C","second compound 0.316 µM, first compound 3.16 µM",24.1%
same,"viability, T/C","second compound 0.316 µM, first compound 10 µM",15.9%
same,"viability, T/C","second compound 1 µM, first compound 0.0316 µM",27.9%
same,"viability, T/C","second compound 1 µM, first compound 0.1 µM",21.5%
same,"viability, T/C","second compound 1 µM, first compound 0.316 µM",24.5%
same,"viability, T/C","second compound 1 µM, first compound 1 µM",27.7%
same,"viability, T/C","second compound 1 µM, first compound 3.16 µM",24.8%
same,"viability, T/C","second compound 1 µM, first compound 10 µM",12.3%
